Results published in patent publication US20060264460A1 (Wyeth, priority 2005, published 2006).

target: T1, human Cot/Tpl2 kinase (Homo sapiens, UniProt P41279); assay: Tpl2/Cot kinase assay: GST-MEK1 phosphorylation detected by ELISA (DELFIA Eu); assay type: biochemical; settings: 0.4 nM Tpl2, 35 nM GST-MEK1, 50 uM ATP, 1 h at 30° C.
T1 construct: human Cot/Tpl2 kinase construct encoding residues 30-398; 6His (N); made in house; host or cells: Sf9 insect cells, baculovirus system (BD Biosciences)
T1 sequence (P41279 30-398): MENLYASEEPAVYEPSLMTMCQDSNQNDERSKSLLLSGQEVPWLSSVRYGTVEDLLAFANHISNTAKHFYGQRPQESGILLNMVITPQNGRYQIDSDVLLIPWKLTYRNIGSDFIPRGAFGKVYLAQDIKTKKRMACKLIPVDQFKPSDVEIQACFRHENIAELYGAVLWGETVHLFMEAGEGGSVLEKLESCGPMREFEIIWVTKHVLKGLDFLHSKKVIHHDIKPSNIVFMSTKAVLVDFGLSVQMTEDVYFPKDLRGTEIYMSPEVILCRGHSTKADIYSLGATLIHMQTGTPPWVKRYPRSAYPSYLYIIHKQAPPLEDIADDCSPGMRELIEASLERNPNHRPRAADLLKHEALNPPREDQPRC
How it was run: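 His-tagged human Tpl2 from Sf9 cells, Ni-affinity and size-exclusion purified (monomer). 0.4 nM Tpl2 with 35 nM GST-MEK1, 50 uM ATP, MOPS pH 7.2, 1% DMSO, 1 h at 30° C; EDTA stop. MEK1 Ser217/221 phosphorylation detected by anti-phospho-MEK1 and Eu-labelled secondary ELISA; IC50 fitted.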

`N#Cc1cnc2ccc(NCc3cccnc3)cc2c1NC1CCCCCC1` [Example 246, 4-(cycloheptylamino)-6-[(pyridin-3-ylmethyl)amino]quinoline-3-carbonitrile] and `N#Cc1cccc(CNc2ccc3ncc(C#N)c(NC4CCCCCC4)c3c2)c1` [Example 247, 6-[(3-Cyanobenzyl)amino]-4-(cycloheptylamino)quinoline-3-carbonitrile] are within 1.5-fold of each other in IC50: 2.4 µM for the first, 2.5 µM for the second.

Going from `CS(=O)(=O)c1cccc(CNc2ccc3ncc(C#N)c(NC4CCCCCC4)c3c2)c1` [Example 248, 4-(cycloheptylamino)-6-{[3-(methylsulfonyl)benzyl]amino}quinoline-3-carbonitrile] to `N#Cc1cnc2ccc(NCc3ccc(S(N)(=O)=O)cc3)cc2c1NC1CCCCCC1` [Example 250, 4-({[3-cyano-4-(cycloheptylamino)quinolin-6-yl]amino}methyl)benzenesulfonamide], the IC50 rises from 2.5 µM to 6.8 µM (2.7-fold).

Compared with `Cn1ccnc1CNc1ccc2ncc(C#N)c(NC3CCCCCC3)c2c1` [Example 249, 4-(cycloheptylamino)-6-{[(1-methyl-1H-imidazol-2-yl)methyl]amino}quinoline-3-carbonitrile], `N#Cc1cnc2ccc(NCc3ccn[nH]3)cc2c1NC1CCCCCC1` [Example 251, 4-(cycloheptylamino)-6-[(1H-pyrazol-5-ylmethyl)amino]quinoline-3-carbonitrile] is 1.7-fold higher in IC50: 0.38 µM for the first, 0.65 µM for the second. The first is the more potent here.

Compared with `N#Cc1cnc2ccc(NCCN3CCOCC3)cc2c1NC1CCCCCC1` [Example 252, 4-(cycloheptylamino)-6-[(2-morpholin-4-ylethyl)amino]quinoline-3-carbonitrile], `N#Cc1cnc2ccc(NCc3cccc[n+]3[O-])cc2c1NC1CCCCCC1` [Example 253, 4-(cycloheptylamino)-6-{[(1-oxidopyridin-2-yl)methyl]amino}quinoline-3-carbonitrile] is 4.4-fold lower in IC50: 6.1 µM for the first, 1.4 µM for the second. The second is the more potent here.

Going from `Cc1nc2ccc(NCc3cnc[nH]3)cc2c(Nc2ccc(F)c(Cl)c2)c1C#N` [Example 254, 4-[(3-chloro-4-fluorophenyl)amino]-6-[(1H-imidazol-5-ylmethyl)amino]-2-methylquinoline-3-carbonitrile] to `Cc1nc2ccc(NCc3cccnc3)cc2c(Nc2ccc(F)c(Cl)c2)c1C#N` [Example 255, 4-[(3-chloro-4-fluorophenyl)amino]-2-methyl-6-[(pyridin-3-ylmethyl)amino]quinoline-3-carbonitrile], the IC50 rises from 19.9 µM to > 40 µM. The first is the more potent here.

`N#Cc1cnc2ccc(NC3CCCC3c3ccccn3)cc2c1Nc1ccc(F)c(Cl)c1` (centres unmarked) [Example 256, 4-[(3-chloro-4-fluorophenyl)amino]-6-[(2-pyridin-2-ylcyclopentyl)amino]quinoline-3-carbonitrile] and `N#Cc1cnc2ccc(NCc3cccc(Br)n3)cc2c1Nc1ccc(F)c(Cl)c1` [Example 258, 6-{[(6-bromopyridin-2-yl)methyl]amino}-4-[(3-chloro-4fluorophenyl)amino]quinoline-3-carbonitrile] are within 1.5-fold of each other in IC50: 0.31 µM for the first, 0.27 µM for the second.

First: N#Cc1cnc2c(C(F)(F)F)cc(NCc3cccc[n+]3[O-])cc2c1Nc1ccc(F)c(Cl)c1 [Example 257, 4-[(3-chloro-4-fluorophenyl)amino]-6-{[(1-oxidopyridin-2-yl)methyl]amino}-8-(trifluoromethyl)quinoline-3-carbonitrile]
Second: N#Cc1cnc2c(F)cc(NCc3cccc[n+]3[O-])cc2c1Nc1ccc(F)c(Cl)c1 [Example 266, 4-[(3-chloro-4-fluorophenyl)amino]-8-fluoro-6-{[(1-oxidopyridin-2-yl)methyl]amino}quinoline-3-carbonitrile]
The IC50 of the first is 28-fold higher: 0.37 µM for the first, 0.013 µM for the second.

Going from `N#Cc1cnc2c(C(F)(F)F)cc(NCc3cccc(Br)n3)cc2c1Nc1ccc(F)c(Cl)c1` [Example 259, 6-{[(6-Bromopyridin-2-yl)methyl]amino}-4-[(3-chloro-4-fluorophenyl)amino]-8-(trifluoromethyl)quinoline-3-carbonitrile] to `N#Cc1cnc2c(Cl)cc(NCc3ccc(C(F)(F)F)[n+]([O-])c3)cc2c1Nc1ccc(F)c(Cl)c1` [Example 275, 8-Chloro-4-[(3-chloro-4-fluorophenyl)amino]-6-({[1-oxido-6-(trifluoromethyl)pyridin-3-yl]methyl}amino)quinoline-3-carbonitrile], the IC50 falls from > 40 µM to 0.37 µM.

Compared with `CC(Nc1ccc2ncc(C#N)c(Nc3ccc(F)c(Cl)c3)c2c1)c1cnccn1` (centres unmarked) [Example 260, 4-[(3-chloro-4-fluorophenyl)amino]-6-[(1-pyrazin-2-ylethyl)amino]quinoline-3-carbonitrile], `N#Cc1cnc2c(Cl)cc(NCc3cncnc3)cc2c1Nc1ccc(F)c(Cl)c1` [Example 272, 8-Chloro-4-(3-chloro-4-fluoro-phenylamino)-6-[(pyrimidin-5-ylmethyl)-amino]-quinoline-3-carbonitrile] is 18-fold lower in IC50: 0.83 µM for the first, 0.047 µM for the second. The second is the more potent here.

Going from `Cn1nc(C(C)(C)C)cc1Nc1c(C#N)cnc2ccc(NCc3cnc[nH]3)cc12` [Example 261, 4-[(3-tert-butyl-1-methyl-1H-pyrazol-5-yl)amino]-6-[(1 H-imidazol-5-ylmethyl)amino]quinoline-3-carbonitrile] to `Cc1noc(Nc2c(C#N)cnc3ccc(NCc4cnc[nH]4)cc23)c1C` [Example 262, 4-[(3,4-dimethylisoxazol-5-yl)amino]-6-[(1H-imidazol-5-ylmethyl)amino]quinoline-3-carbonitrile], the IC50 falls from > 40 µM to 2.2 µM. The second is the more potent here.

Compared with `N#Cc1cnc2ccc(NCc3cnc[nH]3)cc2c1Nc1cccnc1` [Example 263, 6-[(1H-imidazol-5-ylmethyl)amino]-4-(pyridin-3-ylamino)quinoline-3-carbonitrile], `N#Cc1cnc2ccc(NCc3cnc[nH]3)cc2c1Nc1ccncc1` [Example 264, 6-[(1H-imidazol-5-ylmethyl)amino]-4-(pyridin-4-ylamino)quinoline-3-carbonitrile] is 1.6-fold higher in IC50: 1.6 µM for the first, 2.5 µM for the second.

First: N#Cc1cnc2c(F)cc(NCc3cnc[nH]3)cc2c1Nc1ccc(F)c(Cl)c1 [Example 265, 4-[(3-Chloro-4-fluorophenyl)amino]-8-fluoro-6-[(1H-imidazol-5-ylmethyl)amino]quinoline-3-carbonitrile]
Second: N#Cc1cnc2c(F)cc(NCc3ccn[nH]3)cc2c1Nc1ccc(F)c(Cl)c1 [Example 267, 4-[(3-chloro-4-fluorophenyl)amino]-8-fluoro-6-[(1H-pyrazol-5-ylmethyl)amino]quinoline-3-carbonitrile]
The IC50 of the first is 4.8-fold lower: 0.021 µM for the first, 0.1 µM for the second.

`Cn1ccnc1CNc1cc(F)c2ncc(C#N)c(Nc3ccc(F)c(Cl)c3)c2c1` [Example 268, 4-[(3-Chloro-4-fluorophenyl)amino]-8-fluoro-6-{[(1-methyl-1H-imidazol-2-yl)methyl]amino}quinoline-3-carbonitrile] and `Cc1c(CNc2cc(F)c3ncc(C#N)c(Nc4ccc(F)c(Cl)c4)c3c2)ncn1C` [Example 269, 4-[(3-chloro-4-fluorophenyl)amino]-6-{[(1,5-dimethyl-1H-imidazol-4-yl)methyl]amino}-8-fluoroquinoline-3-carbonitrile] are within 1.5-fold of each other in IC50: 0.012 µM for the first, 0.016 µM for the second.

Compared with `N#Cc1cnc2c(F)cc(NCc3cc[n+]([O-])cc3)cc2c1Nc1ccc(F)c(Cl)c1` [Example 270, 4-[(3-Chloro-4-fluorophenyl)amino]-8-fluoro-6-{[(1-oxidopyridin-4-yl)methyl]amino}quinoline-3-carbonitrile], `N#Cc1cnc2c(Cl)cc(NCc3cc[n+]([O-])cc3)cc2c1Nc1ccc(F)c(Cl)c1` [Example 271, 8-Chloro-4-[(3-chloro-4-fluorophenyl)amino]-6-{[(1-oxidopyridin-4-yl)methyl]amino}quinoline-3-carbonitrile] is 1.9-fold lower in IC50: 0.1 µM for the first, 0.054 µM for the second. The second is the more potent here.

First: COc1ccc(CNc2cc(Cl)c3ncc(C#N)c(Nc4ccc(F)c(Cl)c4)c3c2)cc1OCCN1CCOCC1 [Example 273, 8-Chloro-4-[(3-chloro-4-fluorophenyl)amino]-6-{[4-methoxy-3-(2-morpholin-4-ylethoxy)benzyl]amino}quinoline-3-carbonitrile]
Second: N#Cc1cnc2c(Cl)cc(NCc3cccc(N4CCOCC4)n3)cc2c1Nc1ccc(F)c(Cl)c1 [Example 274, 8-chloro-4-[(3-chloro-4-fluorophenyl)amino]-6-{[(6-morpholin-4-ylpyridin-2-yl)methyl]amino}quinoline-3-carbonitrile]
The IC50 of the first is 2.4-fold higher: 0.083 µM for the first, 0.035 µM for the second. The second is the more potent here.

Going from `COc1c(C)cnc(CNc2cc(Cl)c3ncc(C#N)c(Nc4ccc(F)c(Cl)c4)c3c2)c1C` [Example 276, 8-chloro-4-[(3-chloro-4-fluorophenyl)amino]-6-{[(4-methoxy-3,5-dimethylpyridin-2-yl)methyl]amino}quinoline-3-carbonitrile] to `COc1c(C)c[n+]([O-])c(CNc2cc(Cl)c3ncc(C#N)c(Nc4ccc(F)c(Cl)c4)c3c2)c1C` [Example 277, 8-Chloro-4-[(3-chloro-4-fluorophenyl)amino]-6-{[(4-methoxy-3,5-dimethyl-1-oxidopyridin-2-yl)methyl]amino}quinoline-3-carbonitrile], the IC50 falls from 4.7 µM to 0.066 µM (71-fold). The second is the more potent here.

Compared with `N#Cc1cnc2c(Cl)cc(NCc3ccnc4ccccc34)cc2c1Nc1ccc(F)c(Cl)c1` [Example 278, 8-Chloro-4-[(3-chloro-4-fluorophenyl)amino]-6-[(quinolin-4-ylmethyl)amino]quinoline-3-carbonitrile], `N#Cc1cnc2c(Cl)cc(NCc3nnn[nH]3)cc2c1Nc1ccc(F)c(Cl)c1` [Example 279, 8-Chloro-4-[(3-chloro-4-fluorophenyl)amino]-6-[(1 H-tetrazol-5-ylmethyl)amino]quinoline-3-carbonitrile] is 180-fold lower in IC50: 0.46 µM for the first, 0.0026 µM for the second. The second is the more potent here.

`CNc1nc(SC)ncc1CNc1cc(Cl)c2ncc(C#N)c(Nc3ccc(F)c(Cl)c3)c2c1` [Example 280, 8-chloro-4-[(3-chloro-4-fluorophenyl)amino]-6-({[4-(methylamino)-2-(methylthio)pyrimidin-5-yl]methyl]amino)quinoline-3-carbonitrile] was tested, and the IC50 was > 40 µM.
